Measured values from patent publication US20260199367A1, “PLK1 DEGRADATION INDUCING COMPOUNDS WITH INCREASED RIGIDITY” (UPPTHERA, INC., priority 2022, published 2026).

Legend:
Assay type in all cases: cell-based
NCI-H69 (H69) cell line = assay: Cell viability assay for NCI-H69 cell line; conditions: Homo sapiens, NCI-H69, 120 h, 5 days, EZ-Cytox, 0.46-3000 nM
Source text: (§1) The NCI-H69 (hereafter H69) and NCI-H526 (hereafter H526) cell lines were purchased from Korea Cell Line Bank (KCLB, Seoul, Korea). For cell culture, RPMI 1640 (Gibco, Cat. No. 22400-089; Lot. No. 2537146), FBS (Gibco, Cat. No. 16000-044; Lot. No. 2511328P), Penicillin/Streptomycin (PS) (Gibco, Cat. No. 15140-122; Lot. No. 2441887), 75T cell culture flask (SPL, Cat. No. 71075), 175T cell culture flask (SPL, Cat. No. 71175), 96-well cell culture plate (SPL, Cat. No. 30096), PBS pH 7.4 (Gibco, Cat. No. 10010-023; Lot. No. 2509235), TrypLE™ Express (Gibco, Cat. No. 12605-010; Lot. No. 2323417), Cell Counter (Hematocytometer)(As one, Cat. No. 4-458-01), and 0.4% Trypan Blue Solution (DYNEBIO, Cat. No. CBT3710; Lot. No. 20221111) were used.
(§2) The compounds of Examples were completely dissolved in DMSO (Sigma-Aldrich Cat. No. D2438, Lot. No. RNBL7287) and used in the experiment. 3×10^4 cells were seeded for each well of a 96-well plate (SPL), and the cells were cultured in total volume of 150 μl. Each compound was diluted 3-folds from the highest concentration of 3000 nM to the lowest concentration of 0.46 nM. After treating the compound to each well to make the total volume of 200 μl, it was cultured in a CO2 incubator (Thermo Fisher Science, Cat. No. 4111) for 5 days. Then, after treating EZ-Cytox (DOGEN, Cat.NO. EZ-3000, Lot. No. DLS2308) 20 μl in each well, it was cultured in CO2 incubator for 4 hours. The absorbance of the completely cultured sample was measured by setting the wavelength of a plate reader (BMG Labtech, CLARIOstar Plus) to […], and was measured after shaking for 3 minutes in a plate reader before measurement.
(§3) (A: IC50 is less than 20 nM, B: IC50 is 50 nM or less, C: IC50 is 100 nM or less)

PLK1 = molecular target: T1, PLK1 (Homo sapiens, UniProt P53350); assay: Luciferase assay for PLK1 in HeLa LgBit (PLK1-HiBit KI) cell line; conditions: released after thymidine block, compound 300 nM, luminescence after 9 hours
T1 construct: endogenous in cells; host or cells: HeLa LgBit (PLK1-HiBit KI): HeLa cells stably expressing LgBit, with CRISPR/Cas9 knock-in of HiBit at the endogenous PLK1 locus
T1 sequence (P53350 whole entry): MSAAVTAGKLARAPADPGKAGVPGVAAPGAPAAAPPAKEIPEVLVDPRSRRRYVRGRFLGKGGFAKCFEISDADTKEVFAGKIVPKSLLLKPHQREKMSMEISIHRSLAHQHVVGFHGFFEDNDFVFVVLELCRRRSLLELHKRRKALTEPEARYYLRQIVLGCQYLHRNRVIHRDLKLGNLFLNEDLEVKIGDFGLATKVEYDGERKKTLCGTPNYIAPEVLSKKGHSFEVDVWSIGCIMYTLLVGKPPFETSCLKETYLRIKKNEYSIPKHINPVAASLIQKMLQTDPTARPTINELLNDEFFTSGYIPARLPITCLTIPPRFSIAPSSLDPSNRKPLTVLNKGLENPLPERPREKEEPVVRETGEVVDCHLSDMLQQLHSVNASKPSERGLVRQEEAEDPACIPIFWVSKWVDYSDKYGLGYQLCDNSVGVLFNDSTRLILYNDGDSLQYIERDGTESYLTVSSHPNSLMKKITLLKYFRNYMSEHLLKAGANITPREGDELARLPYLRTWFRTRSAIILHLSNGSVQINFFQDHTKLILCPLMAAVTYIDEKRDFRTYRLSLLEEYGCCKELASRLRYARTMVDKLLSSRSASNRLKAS
Description: A HeLa cell line in which the LgBit vector was transfected and expressed stably was prepared. Then, after constructing gRNA and donor to express the HiBit amino acid sequence behind the C-terminal of the PLK1 gene, which was inherent in the cell, it was inserted into the cell together with a vector capable of expressing CRISPR/Cas9. Only the cells in which the insertion was completed and knock-in had progressed were selected, sub-cultured and used.
The compounds of Examples were completely dissolved in DMSO (Sigma-Aldrich Cat. No. D2438, Lot. No. RNBL5438) and used in the experiment.
In the case of HeLa LgBit (Plk1-HiBit KI), the compounds were treated after being released after thymidine block, and the process was as follows. Thymidine (Sigma-Aldrich Cat. No. T9250-5G) was completely dissolved in ddH2O and used in the experiment. For thymidine block, the products were treated with 2 mM of thymidine and then incubated for 24 hours. For release and chemical treatment, the medium was suctioned and washed with 1×PBS. TrypLE™ was added and incubated in 37° C. CO2 incubator (Thermo Fisher Science, Cat. No. 4111) for 5 mins. Cells neutralized by adding complete media were counted through a counter. For each well of a 96-well culture plate (SPL), 3.3×10^4 cells and a total medium volume of 150 μl were seeded and incubated in a CO2 incubator.
Each cell line was incubated in a CO2 incubator for 18 hours, and Endurazine (Promega, Cat. No. N257B) was added to each well to make up 4% of the total volume. After adding compounds of Examples in a 96-well white plate (SPL) to a concentration of 300 nM, the wavelength of the plate reader (BMG Labtech, CLARIOstar Plus) was set to 470-480 nM, and then the luminescence was tracked in real time.

[1] = tested on: NCI-H526 (H526) cell line; assay: Cell viability assay for NCI-H526 cell line; conditions: Homo sapiens, NCI-H526, 120 h, 5 days, EZ-Cytox, 0.46-3000 nM
Source text: as §1, §2, §3

Row | SMILES | Value (luminescence value, PLK1-HiBit) (PLK1) | IC50 (NCI-H69 (H69) cell line) [nM] | IC50 [1] [nM]
1 | CC[C@@H]1C(=O)N(C)c2cnc(Nc3ccc(C(=O)NC4CCC(N5CCN(CCNc6cccc7c6CN(C6CCC(=O)NC6=O)C7=O)CC5)CC4)cc3OC)nc2N1C1CCCC1 (stereo partly drawn) [Compound 5, 4-(((R)-8-cyclopentyl-7-ethyl-5-methyl-6-oxo-5,6,7,8-tetrahydropteridin-2-yl)amino)-N-((1r,4R)-4-(4-(2-((2-(2,6-dioxopiperidin-3-yl)-1-oxoisoindolin-4-yl)amino)ethyl)piperazin-1-yl)cyclohexyl)-3-methoxybenzamide] | 0.376 | < 20 | < 20
2 | COc1cc(C(=O)NC2CCN(C(=O)CCN3CCN(c4ccc(NC5CCC(=O)NC5=O)cc4F)CC3)CC2)ccc1Nc1ncc2c(n1)N(C1CCCC1)CC(F)(F)C(=O)N2C (stereo not drawn) [Compound 26, 4-((9-cyclopentyl-7,7-difluoro-5-methyl-6-oxo-6,7,8,9-tetrahydro-5H-pyrimido[4,5-b][1,4]diazepin-2-yl)amino)-N-(1-(3-(4-(4-((2,6-dioxopiperidin-3-yl)amino)-2-fluorophenyl)piperazin-1-yl)propanoyl)piperidin-4-yl)-3-methoxybenzamide] | 0.269 | ≤ 50 | < 20
3 | COc1cc(C(=O)NCC2CCN(CC3CCN(c4ccc(NC5CCC(=O)NC5=O)cc4)CC3)CC2)ccc1Nc1ncc2c(n1)N(C1CCCC1)CC(F)(F)C(=O)N2C (stereo not drawn) [Compound 28, 4-((9-cyclopentyl-7,7-difluoro-5-methyl-6-oxo-6,7,8,9-tetrahydro-5H-pyrimido[4,5-b][1,4]diazepin-2-yl)amino)-N-((1-((1-(4-((2,6-dioxopiperidin-3-yl)amino)phenyl)piperidin-4-yl)methyl)piperidin-4-yl)methyl)-3-methoxybenzamide] | 0.259 | ≤ 100 | ≤ 50
4 | CC[C@@H]1C(=O)N(C)c2cnc(Nc3ccc(-c4nnc(CNC5CCN(C(=O)C(N)CN6CCN(c7ccc(C8CCC(=O)NC8=O)cc7)CC6)CC5)o4)cc3OC)nc2N1C1CCCC1 (stereo partly drawn) [Compound 15, 3-(4-(4-(2-amino-3-(4-(((5-(4-(((R)-8-cyclopentyl-7-ethyl-5-methyl-6-oxo-5,6,7,8-tetrahydropteridin-2-yl)amino)-3-methoxyphenyl)-1,3,4-oxadiazol-2-yl)methyl)amino)piperidin-1-yl)-3-oxopropyl)piperazin-1-yl)phenyl)piperidine-2,6-dione] | 0.345 | ≤ 100 | ≤ 50

The next lines start with results.

Row | Value (luminescence value, PLK1-HiBit) (PLK1) | SMILES | IC50 (NCI-H69 (H69) cell line) [nM] | IC50 [1] [nM]
5 | 0.286 | CC[C@@H]1C(=O)N(C)c2cnc(Nc3ccc(C(=O)NC4CCC(N5CCC(CNc6cccc7c6CN(C6CCC(=O)NC6=O)C7=O)CC5)CC4)cc3OC)nc2N1C1CCCC1 (stereo partly drawn) [Compound 6, 4-(((R)-8-cyclopentyl-7-ethyl-5-methyl-6-oxo-5,6,7,8-tetrahydropteridin-2-yl)amino)-N-((1r,4R)-4-(4-(((2-(2,6-dioxopiperidin-3-yl)-1-oxoisoindolin-4-yl)amino)methyl)piperidin-1-yl)cyclohexyl)-3-methoxybenzamide] | ≤ 50 | < 20
6 | 0.263 | CC[C@@H]1C(=O)N(C)c2cnc(Nc3ccc(-c4nnc(CNC5CCC(N6CCC(NCc7ccc(C8CCC(=O)NC8=O)cc7)CC6)CC5)o4)cc3OC)nc2N1C1CCCC1 (stereo partly drawn) [Compound 16, 3-(4-(((1-((1r,4r)-4-(((5-(4-(((R)-8-cyclopentyl-7-ethyl-5-methyl-6-oxo-5,6,7,8-tetrahydropteridin-2-yl)amino)-3-methoxyphenyl)-1,3,4-oxadiazol-2-yl)methyl)amino)cyclohexyl)piperidin-4-yl)amino)methyl)phenyl)piperidine-2,6-dione] | ≤ 100 | ≤ 50
7 | 0.234 | CC[C@@H]1C(=O)N(C)c2cnc(Nc3ccc(C(=O)NC4CCN(C(=O)C(N)CN5CCN(c6ccc(C7CCC(=O)NC7=O)cc6)CC5)CC4)cc3OC)nc2N1C1CCCC1 (stereo partly drawn) [Compound 11, N-(1-(2-amino-3-(4-(4-(2,6-dioxopiperidin-3-yl)phenyl)piperazin-1-yl)propanoyl)piperidin-4-yl)-4-(((R)-8-cyclopentyl-7-ethyl-5-methyl-6-oxo-5,6,7,8-tetrahydropteridin-2-yl)amino)-3-methoxybenzamide] | ≤ 50 | < 20
8 | 0.214 | CC[C@@H]1C(=O)N(C)c2cnc(Nc3ccc(C(=O)NC4CCC(N5CCC(CNCc6ccc(C7CCC(=O)NC7=O)cc6)CC5)CC4)cc3OC)nc2N1C1CCCC1 (stereo partly drawn) [Compound 7, 4-(((R)-8-cyclopentyl-7-ethyl-5-methyl-6-oxo-5,6,7,8-tetrahydropteridin-2-yl)amino)-N-((1r,4R)-4-(4-(((4-(2,6-dioxopiperidin-3-yl)benzyl)amino)methyl)piperidin-1-yl)cyclohexyl)-3-methoxybenzamide] | ≤ 50 | < 20
